# Where two headings read alike, the source gives them in different places.
# Key:
# [1] = target: DDR1 (Homo sapiens (Human), UniProt Q08345); experiment: DDR1 LanthaScreen Europium Kinase Binding assay
# Procedure: (§1) DDR1 and DDR2 binding assays were performed using Life Technologies LanthaScreen™ Europium Kinase Binding assay. The compounds were incubated with 5 nM DDR1 (Carna Biosciences) or 5 nM DDR2 (Life Technologies) for 1 hour at rt in white 384-well OptiPlate (PerkinElmer), containing 20 nM or 10 nM Kinase Tracer 178 respectively and 2 nM Europium labelled anti-GST antibody (Life Technologies) in assay buffer (50 mM HEPES pH 7.5, 10 mM MgCI2, 1 mM EGTA and 0.01% BRIJ35). The ratio of fluorescence emission 665 nm/615 nm after excitation at 340 nm was obtained using the Tecan Spark 20M plate reader. IC50 values were determined in GraphPad Prism 7.0 software, using 4 parameter model: log(inhibitor) vs. response. IC50 values were converted in Ki using the Cheng-Prusoff equation (Ki=IC50/(1+[Tracer]/Kd).
# (§2) Compounds C1 and C2 were tested in the same binding assay described above.
# [2] = target: DDR2 (Homo sapiens (Human), UniProt Q16832); experiment: DDR2 LanthaScreen Europium Kinase Binding assay
# Chain of DDR2 (Q16832 22-855): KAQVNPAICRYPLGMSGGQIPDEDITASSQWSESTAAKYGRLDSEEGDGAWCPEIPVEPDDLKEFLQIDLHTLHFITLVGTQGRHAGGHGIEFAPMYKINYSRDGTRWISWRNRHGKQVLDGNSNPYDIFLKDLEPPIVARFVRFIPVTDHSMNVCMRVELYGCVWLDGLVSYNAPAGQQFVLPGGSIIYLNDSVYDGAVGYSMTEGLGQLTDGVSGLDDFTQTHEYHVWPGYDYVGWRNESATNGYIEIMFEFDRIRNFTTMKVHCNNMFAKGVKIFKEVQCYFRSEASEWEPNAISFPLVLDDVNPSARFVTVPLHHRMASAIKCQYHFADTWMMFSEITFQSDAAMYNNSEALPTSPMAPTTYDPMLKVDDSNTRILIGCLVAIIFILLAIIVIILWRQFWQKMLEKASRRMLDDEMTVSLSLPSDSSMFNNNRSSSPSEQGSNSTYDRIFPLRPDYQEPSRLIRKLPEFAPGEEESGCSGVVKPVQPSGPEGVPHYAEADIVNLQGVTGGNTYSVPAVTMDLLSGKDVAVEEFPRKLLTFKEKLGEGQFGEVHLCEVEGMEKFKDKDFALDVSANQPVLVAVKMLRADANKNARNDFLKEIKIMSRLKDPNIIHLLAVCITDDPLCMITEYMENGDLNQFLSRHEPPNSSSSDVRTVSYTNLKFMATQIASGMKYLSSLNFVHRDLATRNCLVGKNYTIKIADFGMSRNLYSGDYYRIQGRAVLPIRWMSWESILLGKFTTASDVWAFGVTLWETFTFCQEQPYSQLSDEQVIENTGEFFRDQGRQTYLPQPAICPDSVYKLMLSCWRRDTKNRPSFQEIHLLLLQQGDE
# Procedure: as §1, §2
# [3] = binding, 5 nM DDR1, 20 nM Kinase Tracer 178, 1 hour at rt, Ki from IC50 by Cheng-Prusoff, read-out: Ki DDR1
# [4] = binding, 5 nM DDR2, 10 nM Kinase Tracer 178, 1 hour at rt, Ki from IC50 by Cheng-Prusoff, read-out: Ki DDR2
# [5] = same binding assay, numeric values, read-out: DDR1 Ki
# Chain of DDR1 (Q08345 19-913): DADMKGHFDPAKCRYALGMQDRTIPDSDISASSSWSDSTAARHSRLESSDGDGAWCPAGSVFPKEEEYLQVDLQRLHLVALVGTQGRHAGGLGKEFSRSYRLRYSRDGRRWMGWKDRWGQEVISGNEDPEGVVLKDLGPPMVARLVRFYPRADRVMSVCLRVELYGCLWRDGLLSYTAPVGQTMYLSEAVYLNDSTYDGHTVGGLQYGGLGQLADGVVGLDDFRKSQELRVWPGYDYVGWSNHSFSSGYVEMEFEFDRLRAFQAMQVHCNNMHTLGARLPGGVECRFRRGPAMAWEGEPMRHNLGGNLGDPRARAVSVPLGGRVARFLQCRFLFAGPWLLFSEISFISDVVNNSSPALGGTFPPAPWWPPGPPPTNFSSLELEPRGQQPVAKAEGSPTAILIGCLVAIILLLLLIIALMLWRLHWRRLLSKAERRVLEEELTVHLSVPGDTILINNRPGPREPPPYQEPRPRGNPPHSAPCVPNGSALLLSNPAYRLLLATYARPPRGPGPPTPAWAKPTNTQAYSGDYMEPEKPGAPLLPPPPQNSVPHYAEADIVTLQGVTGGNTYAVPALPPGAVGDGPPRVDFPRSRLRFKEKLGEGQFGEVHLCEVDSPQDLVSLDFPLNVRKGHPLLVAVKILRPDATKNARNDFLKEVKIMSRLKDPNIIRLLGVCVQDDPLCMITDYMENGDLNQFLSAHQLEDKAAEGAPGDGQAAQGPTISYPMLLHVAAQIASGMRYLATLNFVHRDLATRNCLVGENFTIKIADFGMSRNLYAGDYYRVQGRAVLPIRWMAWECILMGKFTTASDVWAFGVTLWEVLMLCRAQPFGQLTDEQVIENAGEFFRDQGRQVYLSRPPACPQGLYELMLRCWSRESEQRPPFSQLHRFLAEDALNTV
SMILES,"Ki [1, 3] [nM]","Ki [2, 4] [nM]","Ki [1, 5] [nM]","Ki ([2]; DDR2 Ki (nM), same binding assay, numeric values) [nM]","Ki ([2]; same binding assay, numeric values, read-out: DDR2 Ki) [nM]"
"Cc1ccc(C(=O)Nc2cccc(C(F)(F)F)c2)cc1C1CCN(c2cncc(N3CCOCC3)c2)C1 (centres unmarked) [Example 8, 4-methyl-3-(1-(5-morpholinopyridin-3-yl)pyrrolidin-3-yl)-N-(3-(trifluoromethyl)phenyl)benzamide]",< 10,25 to 60,–,–,–
"Cc1ccc(C(=O)Nc2cccc(C(F)(F)F)c2)cc1C1CCN(c2ccnc(C#N)c2)C1 (centres unmarked) [Example 24, 3-(1-(2-cyanopyridin-4-yl)pyrrolidin-3-yl)-4-methyl-N-(3-(trifluoromethyl)phenyl)benzamide]",25 to 60,> 60,–,–,–
"CC(=O)Nc1cncc(N2CC[C@@H](c3cc(C(=O)Nc4cccc(C(F)(F)F)c4)ccc3C)C2)c1 [Example 40, (S)-3-(1-(5-acetamidopyridin-3-yl)pyrrolidin-3-yl)-4-methyl-N-(3-(trifluoromethyl)phenyl)benzamide]",< 10,< 10,–,–,–
"CNC(=O)c1cc(N2CCC(c3cc(C(=O)Nc4cccc(C(F)(F)F)c4)ccc3C)C2)ccn1 (centres unmarked) [Example 1, N-methyl-4-(3-(2-methyl-5-((3-(trifluoromethyl)phenyl)carbamoyl)phenyl)pyrrolidin-1-yl)picolinamide]",< 10,< 10,–,–,–
"Cc1ccc(C(=O)Nc2cccc(C(F)(F)F)c2)cc1C1CCN(c2ccnc(C(N)=O)c2)C1 (single isomer, unassigned) [Example 55, 4-(3-(2-methyl-5-((3-(trifluoromethyl)phenyl)carbamoyl)phenyl)pyrrolidin-1-yl)picolinamide]",10 to 25,25 to 60,–,–,–
"Cc1ccc(C(=O)Nc2cccc(C(F)(F)F)c2)cc1C1CN1c1cccnc1 (centres unmarked) [Compound C1, 4-methyl-3-(1-(pyridin-3-yl)aziridin-2-yl)-N-(3-(trifluoromethyl)phenyl)benzamide, reference compound]",–,–,174,305,–
"COCCn1cc(Nc2cncc(N3CC[C@@H](c4cc(C(=O)Nc5cccc(C(F)(F)F)c5)ccc4C)C3)c2)cn1 [Example 46, (S)-3-(1-(5-((1-(2-methoxyethyl)-1H-pyrazol-4-yl)amino)pyridin-3-yl)pyrrolidin-3-yl)-4-methyl-N-(3-(trifluoromethyl)phenyl)benzamide]",< 10,10 to 25,–,–,–
"Cc1ccc(C(=O)Nc2cccc(C(F)(F)F)c2)cc1[C@@H]1CCN(c2cncc(C(=O)N3CCOCC3)c2)C1 [Example 33, (S)-4-methyl-3-(1-(5-(morpholine-4-carbonyl)pyridin-3-yl)pyrrolidin-3-yl)-N-(3-(trifluoromethyl)phenyl)benzamide]",< 10,10 to 25,–,–,–
"COCCNC(=O)c1cncc(N2CCC(c3cc(C(=O)Nc4cccc(C(F)(F)F)c4)ccc3C)C2)c1 (centres unmarked) [Example 9, N-(2-methoxyethyl)-5-(3-(2-methyl-5-((3-(trifluoromethyl)phenyl)carbamoyl)phenyl)pyrrolidin-1-yl)nicotinamide]",< 10,10 to 25,–,–,–
"CNC(=O)c1cc(N2CC[C@H](c3cc(C(=O)Nc4cccc(C(F)(F)F)c4)ccc3C)C2)ccn1 [Example 27, (R)-N-methyl-4-(3-(2-methyl-5-((3-(trifluoromethyl)phenyl)carbamoyl)phenyl)pyrrolidin-1-yl)picolinamide]",< 10,25 to 60,–,–,–
"Cc1ccc(C(=O)Nc2cccc(C(F)(F)F)c2)cc1C1CCN(Cc2cccnc2)C1 (centres unmarked) [Compound C2, 4-methyl-3-(1-(pyridin-3-ylmethyl)pyrrolidin-3-yl)-N-(3-(trifluoromethyl)phenyl)benzamide, reference compound]",–,–,571,–,764
"Cc1ccc(C(=O)Nc2cccc(C(F)(F)F)c2)cc1[C@@H]1CCN(c2cncc(-c3cnn(C)c3)c2)C1 [Example 52, (S)-4-methyl-3-(1-(5-(1-methyl-1H-pyrazol-4-yl)pyridin-3-yl)pyrrolidin-3-yl)-N-(3-(trifluoromethyl)phenyl)benzamide]",< 10,< 10,–,–,–
"Cc1ccc(C(=O)Nc2cccc(C(F)(F)F)c2)cc1C1CCN(c2ccnc(C(N)=O)c2)C1 (racemic) [Example 53, 4-(3-(2-methyl-5-((3-(trifluoromethyl)phenyl)carbamoyl)phenyl)pyrrolidin-1-yl)picolinamide]",< 10,< 10,–,–,–
"Cc1ccc(C(=O)Nc2cccc(C(F)(F)F)c2)cc1[C@H]1CCN(c2cncc(C(N)=O)c2)C1 [Example 18, (R)-5-(3-(2-methyl-5-((3-(trifluoromethyl)phenyl)carbamoyl)phenyl)pyrrolidin-1-yl)nicotinamide]",< 10,10 to 25,–,–,–
"Cc1ccc(C(=O)Nc2cc(CN3CCCC3)cc(C(F)(F)F)c2)cc1[C@@H]1CCN(c2cncc(C(N)=O)c2)C1 [Example 57, (S)-5-(3-(2-methyl-5-((3-(pyrrolidin-1-ylmethyl)-5-(trifluoromethyl)phenyl)carbamoyl)phenyl)pyrrolidin-1-yl)nicotinamide]",< 10,< 10,–,–,–
"Cc1ccc(C(=O)Nc2cccc(C(F)(F)F)c2)cc1[C@H]1CCN(c2cccnc2)C1 [Example 15, (R)-4-methyl-3-(1-(pyridin-3-yl)pyrrolidin-3-yl)-N-(3-(trifluoromethyl)phenyl)benzamide]",10 to 25,25 to 60,–,–,–
"Cc1ccc(C(=O)Nc2cccc(C(F)(F)F)c2)cc1C1CCN(c2cncc(OCCN(C)C)c2)C1 (centres unmarked) [Example 23, 3-(1-(5-(2-(dimethylamino)ethoxy)pyridin-3-yl)pyrrolidin-3-yl)-4-methyl-N-(3-(trifluoromethyl)phenyl)benzamide]",< 10,< 10,–,–,–
"Cc1ccc(C(=O)Nc2cccc(C(F)(F)F)c2)cc1[C@@H]1CCN(c2cccnc2)C1 [Example 16, (S)-4-methyl-3-(1-(pyridin-3-yl)pyrrolidin-3-yl)-N-(3-(trifluoromethyl)phenyl)benzamide]",< 10,< 10,–,–,–
"Cc1ccc(C(=O)Nc2cccc(C(F)(F)F)c2)cc1C1CCN(c2cncc(NCCN(C)C)c2)C1 (centres unmarked) [Example 21, 3-(1-(5-((2-(dimethylamino)ethyl)amino)pyridin-3-yl)pyrrolidin-3-yl)-4-methyl-N-(3-(trifluoromethyl)phenyl)benzamide]",< 10,25 to 60,–,–,–
"Cc1ccc(C(=O)Nc2cccc(C(F)(F)F)c2)cc1[C@@H]1CCN(c2ccc(Nc3cnn(C)c3)nc2)C1 [Example 44, (S)-4-methyl-3-(1-(6-((1-methyl-1H-pyrazol-4-yl)amino)pyridin-3-yl)pyrrolidin-3-yl)-N-(3-(trifluoromethyl)phenyl)benzamide]",10 to 25,25 to 60,–,–,–
"Cc1ccc(C(=O)Nc2cccc(C(F)(F)F)c2)cc1[C@@H]1CCN(c2cncc(N3CCC4(COC4)C3)c2)C1 [Example 39, (S)-3-(1-(5-(2-oxa-6-azaspiro[3.4]octan-6-yl)pyridin-3-yl)pyrrolidin-3-yl)-4-methyl-N-(3-(trifluoromethyl)phenyl)benzamide]",10 to 25,> 60,–,–,–
"Cc1ccc(C(=O)Nc2cccc(C(F)(F)F)c2)cc1[C@@H]1CCN(c2cncc(C(=O)NCCN(C)C)c2)C1 [Example 34, (S)-N-(2-(dimethylamino)ethyl)-5-(3-(2-methyl-5-((3-(trifluoromethyl)phenyl)carbamoyl)phenyl)pyrrolidin-1-yl)nicotinamide]",< 10,< 10,–,–,–

# Reference: US20240425482A1, “PYRROLIDINE DERIVATIVES AS DDRS INHIBITORS” (CHIESI FARMACEUTICI S.P.A., priority 2021, published 2024)
